Experimental data published in patent publication US20230346827A1 (priority 2020, published 2023).

System: rats subjected to sTBI
Assay: sTBI rats, LMW-DS 1, 5, 15 mg/kg s.c. 30 min post-TBI: HPLC of brain free amino acids (Example 4)
Assay type: in vivo, rat
[1] = 15 mg/kg repeated, 7 d post-sTBI

sodium salt of dextran sulfate [LMW-DS]
ALA (1 mg/kg, 2 d post-sTBI): 0.76 ± 0.08 nmol/g w.w. | ARG (1 mg/kg, 2 d post-sTBI): 0.13 ± 0.03 nmol/g w.w. | ASN (1 mg/kg, 2 d post-sTBI): 0.13 ± 0.02 nmol/g w.w. | ASP (1 mg/kg, 2 d post-sTBI): 4.17 ± 0.99 nmol/g w.w. | CITR (1 mg/kg, 2 d post-sTBI): 0.01 ± 0.01 nmol/g w.w. | GABA (1 mg/kg, 2 d post-sTBI): 1.87 ± 0.17 µmol/g w.w. | GLN (1 mg/kg, 2 d post-sTBI): 4.37 ± 0.59 nmol/g w.w. | GLU (1 mg/kg, 2 d post-sTBI): 12.52 ± 0.91 nmol/g w.w. | GLY (1 mg/kg, 2 d post-sTBI): 1.35 ± 0.26 nmol/g w.w. | HYS (1 mg/kg, 2 d post-sTBI): 0.08 ± 0.01 nmol/g w.w. | ILE (1 mg/kg, 2 d post-sTBI): 0.10 ± 0.02 nmol/g w.w. | L-Cystat (1 mg/kg, 2 d post-sTBI): 0.25 ± 0.05 nmol/g w.w. | LEU (1 mg/kg, 2 d post-sTBI): 0.09 ± 0.02 nmol/g w.w. | LYS (1 mg/kg, 2 d post-sTBI): 0.29 ± 0.11 nmol/g w.w. | MET (1 mg/kg, 2 d post-sTBI): 0.04 ± 0.01 nmol/g w.w. | ORN (1 mg/kg, 2 d post-sTBI): 0.02 ± 0.01 nmol/g w.w. | PHE (1 mg/kg, 2 d post-sTBI): 0.07 ± 0.03 nmol/g w.w. | SAH (1 mg/kg, 2 d post-sTBI): 0.07 ± 0.02 nmol/g w.w. | SER (1 mg/kg, 2 d post-sTBI): 0.91 ± 0.07 nmol/g w.w. | TAU (1 mg/kg, 2 d post-sTBI): 4.98 ± 0.47 nmol/g w.w. | THR (1 mg/kg, 2 d post-sTBI): 0.70 ± 0.15 nmol/g w.w. | TRP (1 mg/kg, 2 d post-sTBI): 0.02 ± 0.01 nmol/g w.w. | TYR (1 mg/kg, 2 d post-sTBI): 0.18 ± 0.03 nmol/g w.w. | VAL (1 mg/kg, 2 d post-sTBI): 0.07 ± 0.03 nmol/g w.w. | ALA (1 mg/kg, 7 d post-sTBI): 0.57 ± 0.06 nmol/g w.w. | ARG (1 mg/kg, 7 d post-sTBI): 0.13 ± 0.02 nmol/g w.w. | ASN (1 mg/kg, 7 d post-sTBI): 0.10 ± 0.02 nmol/g w.w. | ASP (1 mg/kg, 7 d post-sTBI): 4.17 ± 0.67 nmol/g w.w. | CITR (1 mg/kg, 7 d post-sTBI): 0.03 ± 0.01 nmol/g w.w. | GABA (1 mg/kg, 7 d post-sTBI): 1.73 ± 0.18 µmol/g w.w. | GLN (1 mg/kg, 7 d post-sTBI): 4.10 ± 0.42 nmol/g w.w. | GLU (1 mg/kg, 7 d post-sTBI): 12.14 ± 1.02 nmol/g w.w. | GLY (1 mg/kg, 7 d post-sTBI): 0.98 ± 0.20 nmol/g w.w. | L-Cystat (1 mg/kg, 7 d post-sTBI): 0.24 ± 0.04 nmol/g w.w. | MET (1 mg/kg, 7 d post-sTBI): 0.03 ± 0.01 nmol/g w.w. | ORN (1 mg/kg, 7 d post-sTBI): 0.01 ± 0.01 nmol/g w.w. | SAH (1 mg/kg, 7 d post-sTBI): 0.04 ± 0.01 nmol/g w.w. | SER (1 mg/kg, 7 d post-sTBI): 0.92 ± 0.16 nmol/g w.w. | THR (1 mg/kg, 7 d post-sTBI): 0.71 ± 0.12 nmol/g w.w. | ALA (5 mg/kg, 2 d post-sTBI): 0.79 ± 0.08 nmol/g w.w. | ARG (5 mg/kg, 2 d post-sTBI): 0.13 ± 0.03 nmol/g w.w. | ASN (5 mg/kg, 2 d post-sTBI): 0.17 ± 0.03 nmol/g w.w. | ASP (5 mg/kg, 2 d post-sTBI): 4.15 ± 0.95 nmol/g w.w. | CITR (5 mg/kg, 2 d post-sTBI): 0.02 ± 0.01 nmol/g w.w. | GABA (5 mg/kg, 2 d post-sTBI): 1.99 ± 0.18 µmol/g w.w. | GLN (5 mg/kg, 2 d post-sTBI): 4.55 ± 0.44 nmol/g w.w. | GLU (5 mg/kg, 2 d post-sTBI): 11.93 ± 0.55 nmol/g w.w. | GLY (5 mg/kg, 2 d post-sTBI): 1.43 ± 0.28 nmol/g w.w. | HYS (5 mg/kg, 2 d post-sTBI): 0.11 ± 0.02 nmol/g w.w. | ILE (5 mg/kg, 2 d post-sTBI): 0.10 ± 0.02 nmol/g w.w. | L-Cystat (5 mg/kg, 2 d post-sTBI): 0.31 ± 0.06 nmol/g w.w. | LEU (5 mg/kg, 2 d post-sTBI): 0.10 ± 0.02 nmol/g w.w. | LYS (5 mg/kg, 2 d post-sTBI): 0.37 ± 0.14 nmol/g w.w. | MET (5 mg/kg, 2 d post-sTBI): 0.05 ± 0.01 nmol/g w.w. | ORN (5 mg/kg, 2 d post-sTBI): 0.01 ± 0.01 nmol/g w.w. | PHE (5 mg/kg, 2 d post-sTBI): 0.07 ± 0.03 nmol/g w.w. | SAH (5 mg/kg, 2 d post-sTBI): 0.07 ± 0.02 nmol/g w.w. | SER (5 mg/kg, 2 d post-sTBI): 0.91 ± 0.07 nmol/g w.w. | TAU (5 mg/kg, 2 d post-sTBI): 5.15 ± 0.49 nmol/g w.w. | THR (5 mg/kg, 2 d post-sTBI): 0.77 ± 0.17 nmol/g w.w. | TRP (5 mg/kg, 2 d post-sTBI): 0.03 ± 0.01 nmol/g w.w. | TYR (5 mg/kg, 2 d post-sTBI): 0.20 ± 0.03 nmol/g w.w. | VAL (5 mg/kg, 2 d post-sTBI): 0.08 ± 0.03 nmol/g w.w. | ALA (5 mg/kg, 7 d post-sTBI): 0.44 ± 0.05 nmol/g w.w. | ARG (5 mg/kg, 7 d post-sTBI): 0.15 ± 0.02 nmol/g w.w. | ASN (5 mg/kg, 7 d post-sTBI): 0.10 ± 0.02 nmol/g w.w. | ASP (5 mg/kg, 7 d post-sTBI): 3.63 ± 0.59 nmol/g w.w. | CITR (5 mg/kg, 7 d post-sTBI): 0.03 ± 0.01 nmol/g w.w. | GABA (5 mg/kg, 7 d post-sTBI): 1.63 ± 0.17 µmol/g w.w. | GLN (5 mg/kg, 7 d post-sTBI): 3.86 ± 0.40 nmol/g w.w. | GLU (5 mg/kg, 7 d post-sTBI): 11.82 ± 0.99 nmol/g w.w. | GLY (5 mg/kg, 7 d post-sTBI): 0.88 ± 0.15 nmol/g w.w. | L-Cystat (5 mg/kg, 7 d post-sTBI): 0.26 ± 0.04 nmol/g w.w. | MET (5 mg/kg, 7 d post-sTBI): 0.04 ± 0.01 nmol/g w.w. | ORN (5 mg/kg, 7 d post-sTBI): 0.01 ± 0.01 nmol/g w.w. | SAH (5 mg/kg, 7 d post-sTBI): 0.04 ± 0.01 nmol/g w.w. | SER (5 mg/kg, 7 d post-sTBI): 0.83 ± 0.14 nmol/g w.w. | THR (5 mg/kg, 7 d post-sTBI): 0.71 ± 0.15 nmol/g w.w. | ALA [1]: 0.47 ± 0.05 nmol/g w.w. | ARG [1]: 0.19 ± 0.02 nmol/g w.w. | ASN [1]: 0.10 ± 0.02 nmol/g w.w. | ASP [1]: 2.42 ± 0.39 nmol/g w.w. | CITR [1]: 0.03 ± 0.01 nmol/g w.w. | GABA [1]: 1.38 ± 0.14 µmol/g w.w.
